A short description of assay [1]: Cytotoxicity against human multidrug-resistant A549/Taxol cells assessed as reduction in cell viability. Type of assay: functional, cell-based.
Assay [2] concerns Candida albicans. Briefly: Antifungal activity against fluconazole resistant Candida albicans kzs01 assessed as inhibition of growth at 100 uM after 24 hrs. Type of assay: functional, organism-based.
The subject of assay [3] is A549. The assay is described as follows: Cytotoxicity against human A549 cells assessed as reduction in cell viability. The assay is classed as functional, cell-based.
The subject of assay [4] is Staphylococcus aureus. Briefly: Antibacterial activity against Staphylococcus aureus assessed as inhibition of growth at 100 uM after 24 hrs. The assay is classed as functional, organism-based.
The subject of assay [5] is SMMC-7721. The assay is described as follows: Cytotoxicity against human SMMC-7721 cells assessed as reduction in cell viability. Type of assay: functional, cell-based.
The subject of assay [6] is MCF7. The assay is described as follows: Cytotoxicity against human MCF7 cells assessed as reduction in cell viability. Type of assay: functional, cell-based.
Assay [7] deals with HL-60. Briefly: Cytotoxicity against human HL-60 cells assessed as reduction in cell viability. Type of assay: functional, cell-based.
Assay [8] concerns SW480. The assay is described as follows: Cytotoxicity against human SW480 cells assessed as reduction in cell viability. Type of assay: functional, cell-based.
Assay [9] has as its system RAW264.7. The assay is described as follows: Inhibition of LPS-induced NO production in mouse RAW264.7 cells incubated for 18 hrs by Griess reagent based assay. The assay is classed as functional, cell-based. To be noted: RAW264.7, 18 h.

Active and inactive are the calls of the source. No cut-off for these calls is given here.

With `COC[C@@H]1C(=O)[C@@]23[C@H]4OC5O[C@@]2(O)[C@@H](O)[C@@H]2C(C)(C)CCC[C@]52[C@@H]3[C@@H](OC(C)=O)C[C@@H]14`, the IC50 in assay [1], in assay [3], in assay [5], in assay [6], in [7] and in assay [8] was greater than 10 µM each time. Further, the inhibition entry in [2] and in assay [4] was “inactive” throughout.
As for `COC[C@H]1C(=O)[C@@]23[C@H]4OC5O[C@@]2(O)[C@@H](O)[C@@H]2C(C)(C)CCC[C@]52[C@@H]3[C@@H](OC(C)=O)C[C@@H]14`, the IC50 in assay [1] was greater than 10 µM; in assay [9], 29.4 µM; in assay [3], greater than 10 µM; in assay [5], greater than 10 µM; in assay [6], greater than 10 µM; in assay [7], greater than 10 µM. Moreover, the IC50 in [8] is greater than 10 µM. In addition, the inhibition result in assay [2] and in assay [4] was “inactive” each time.
`CC(=O)O[C@H]1C[C@@H]2[C@@H]3OC4O[C@@]5(O)[C@@H](O)[C@@H]6C(C)(C)CCC[C@]46[C@H]1[C@]35C(=O)[C@]21CO1`: the IC50 in assay [1], in [3], in assay [5], in assay [6], in assay [7] and in assay [8] was greater than 10 µM throughout. Also, the inhibition entry in assay [2] and in [4] was “inactive” each time.
For `CNC(=N)NCCC[C@H](N)C(=O)O` [TILARGININE ACETATE], the half-inhibitory concentration (IC50) in assay [9] is 47.2 µM.
For the compound `COC[C@@H]1C(=O)[C@]23[C@H](O)[C@H]1CC[C@H]2C12CCCC(C)(C)[C@H]1C(=O)[C@]3(O)[C@@H]2O`, the 50% inhibitory concentration (IC50) in [1], in assay [3], in assay [5], in [6], in [7] and in assay [8] was greater than 10 µM throughout. Further, the inhibition result in assay [2] and in [4] was “inactive” in each case.
In the case of `COC[C@@]1(C[C@H]2C(=O)[C@@]34[C@H]5OC6O[C@@]3(O)[C@@H](O)[C@@H]3C(C)(C)CCC[C@]63[C@@H]4[C@@H](OC(C)=O)C[C@@H]25)C(=O)[C@]23[C@H](O)[C@@]4(O)OC5O[C@H]2[C@H]1C[C@H](OC(C)=O)[C@H]3[C@@]51CCCC(C)(C)[C@@H]41` (stereo partly drawn), the half-inhibitory concentration (IC50) in assay [1] is greater than 10 µM; in assay [9], 42.2 µM; in assay [3], greater than 10 µM; in [5] it was greater than 10 µM; in assay [6] it was greater than 10 µM; in assay [7], greater than 10 µM. The half-inhibitory concentration (IC50) in assay [8] was greater than 10 µM. Besides, the inhibition entry in assay [2] and in assay [4] was “inactive” in each case.
In the case of `CC(=O)O[C@H]1C[C@@H]2[C@@H]3OC4O[C@@]5(O)[C@@H](O)[C@@H]6C(C)(C)CCC[C@]46[C@H]1[C@]35C(=O)[C@]21CCC2=C(O1)[C@@]13[C@H]4OC5O[C@@]1(O)[C@@H](O)[C@@H]1C(C)(C)CCC[C@]51[C@@H]3CC[C@@H]24`, the IC50 in [1], in [3], in assay [5], in assay [6], in [7] and in assay [8] was greater than 10 µM throughout. In addition, the inhibition result in assay [2] and in [4] was “inactive” throughout.
As to `COC(=O)CCCCCC/C=C(/C=O)C[C@H]1C(=O)[C@@]23[C@H]4OC5O[C@@]2(O)[C@@H](O)[C@@H]2C(C)(C)CCC[C@]52[C@@H]3[C@@H](OC(C)=O)C[C@@H]14`, the IC50 in assay [1], in assay [3], in assay [5], in [6], in assay [7] and in assay [8] was greater than 10 µM throughout. Further, the inhibition result in [2] and in [4] was “inactive” throughout.
Take `COC[C@@]1(C[C@H]2C(=O)[C@@]34[C@H]5OC6O[C@@]3(O)[C@@H](O)[C@@H]3C(C)(C)CCC[C@]63[C@@H]4CC[C@@H]25)C(=O)[C@@]23[C@H]4OC5O[C@@]2(O)[C@@H](O)[C@@H]2C(C)(C)CCC[C@]52[C@@H]3[C@@H](OC(C)=O)C[C@H]41`: the IC50 was greater than 10 µM in assay [1]; 11.1 µM in assay [9]; greater than 10 µM in assay [3]; greater than 10 µM in [5]; greater than 10 µM in assay [6]; greater than 10 µM in assay [7]. For the same compound, in assay [8], the concentration for half-maximal inhibition (IC50) is greater than 10 µM. The inhibition entry in assay [2] and in assay [4] was “inactive” throughout.

(Values after ChEMBL document CHEMBL4673369, “ent-Kaurane-Based Diterpenoids, Dimers, and Meroditerpenoids from Isodon xerophilus” (J Nat Prod, 2020).)
